These compounds were tested against T1, Human Glucocorticoid Receptor (hGR) (Homo sapiens, UniProt P04150) (assay: Human Glucocorticoid Receptor (hGR) Ligand-Binding Assay (competitive 3H-dexamethasone binding, IM9 cytosol)). Conditions: compound at 1 μM; competition with 3H-dexamethasone; cytosol of IM9 cells; read-out: % inhibition hGR at 1 μM.
T1 construct: the resultant supernatant (=cytosol of IM9 cells) was centrifuged at 103,000 g for 60 minutes; host or cells: IM9 human lymphoblast cell line (cytosol fraction)
T1 sequence (P04150 1-777): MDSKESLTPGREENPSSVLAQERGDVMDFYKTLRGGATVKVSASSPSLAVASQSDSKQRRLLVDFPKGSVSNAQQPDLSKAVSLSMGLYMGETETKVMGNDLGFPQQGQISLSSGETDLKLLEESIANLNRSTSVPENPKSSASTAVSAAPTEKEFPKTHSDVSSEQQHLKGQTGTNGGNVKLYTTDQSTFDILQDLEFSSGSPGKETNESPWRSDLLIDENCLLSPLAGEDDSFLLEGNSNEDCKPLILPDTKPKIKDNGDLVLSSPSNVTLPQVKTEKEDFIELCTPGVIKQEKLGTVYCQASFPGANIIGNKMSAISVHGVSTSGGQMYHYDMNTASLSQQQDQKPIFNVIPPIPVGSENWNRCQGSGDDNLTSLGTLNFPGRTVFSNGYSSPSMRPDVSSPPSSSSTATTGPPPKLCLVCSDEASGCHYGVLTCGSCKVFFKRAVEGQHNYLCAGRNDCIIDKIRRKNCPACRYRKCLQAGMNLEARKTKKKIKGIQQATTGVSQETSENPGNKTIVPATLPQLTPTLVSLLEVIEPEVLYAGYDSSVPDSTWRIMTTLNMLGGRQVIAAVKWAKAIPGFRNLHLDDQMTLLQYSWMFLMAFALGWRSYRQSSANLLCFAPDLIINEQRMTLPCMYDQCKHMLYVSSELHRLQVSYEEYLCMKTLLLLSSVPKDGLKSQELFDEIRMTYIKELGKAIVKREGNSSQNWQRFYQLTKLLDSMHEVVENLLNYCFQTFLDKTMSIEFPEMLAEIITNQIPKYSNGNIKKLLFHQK
Description: Human Glucocorticoid Receptor (hGR) Ligand-Binding Assay
Potential selective glucocorticoid receptor modulators of this intervention can be tested for their binding affinity at the glucocorticoid receptor using the binding assay described below.
Preferably, the glucocortitcoid receptor extracted from cytosol of IM9 cells is used for competitive radioligand binding assays to calculate the IC50 values and binding affinity (Ki value) of the compounds according to the present invention. Preferably, a fixed concentration of the radioligand 3H-dexamethasone and a range of concentrations of compounds according to the present invention (as unlabeled competitors of dexamethasone) are mixed with the extracted glucocorticoid receptor in order to measure the potency/affinity with which they compete for the binding of the radioligand. Preferably, by using competition curves the IC50 which is the concentration of competing ligand that displaces 50% of the specific binding of the radioligand is determined. Finally this IC50 value is converted to a Ki value.
The human lymphoblast cell line IM9 (ATCC, Bethesda, Md.) were cultivated in RPMI 1640 media containing 10% fetal bovine serum, penicillin (100 U/ml), streptomycin (100 μg/ml), and 2 mM L-glutamine at […] and 7% CO2 in a humidified incubator. Cells were centrifuged for 10 minutes at 1500 g and were washed in PBS and repelleted. Cell were then resuspended in homogenization buffer consisting of: 10 mM TES, 10 mM sodium molybdate, 1 mM EDTA, pH 7.4, 20 mM 2-mercaptoethanol, and 10% glycerol. Disruption of the cells was performed by nitrogen cavitation using 2×15 minutes at 600 to 750 psi nitrogen in a N2 cavitator at 0° C. The cell preparation was then centrifuged at 27,000 g for 15 minutes, and the resultant supernatant (=cytosol of IM9 cells) was centrifuged at 103,000 g for 60 minutes at 4° C. The amount of protein in the supernatant fraction was determined using a BCA assay kit and aliquots were snap frozen in a dry ice-acetone bath and stored at −70° C. Competitive binding assays were done in duplicate in homogenization buffer with a total volume of 200 μl. To this end, 1 mg of IM9 cytosol, 0.05 μCi (1.5 nM) of 3H-dexamethasone […] and compounds according to the present invention (=unlabeled competitors of dexamethasone; range of concentrations) were mixed. The reaction was stopped after incubation at 0° C. for 16 to 18 hours by the addition of 100 μl of a charcoal-dextran mixture (2% activated charcoal, 0.5% dextran in 10 mM Tris, 1 mM EDTA, pH 7.4). Another incubation step at 0° C. for 10 minutes followed before the samples were centrifuged for 5 minutes at 8200 g. 100 μl of the supernatant) was finally assayed for radioactivity by liquid scintillationspectrometry, and the IC50 values were determined graphically and were converted to Ki values.

Row | inhibition at 1 µM | SMILES
1 | 60 to 85% | COc1cc([C@@H]2[C@@H](NC(=O)C(C)(F)F)CC(=O)N2c2ccc3c(cnn3-c3ccc(=O)n(C)c3)c2)ccc1F [Example 15, 2,2-difluoro-N-((2R,3S)-2-(4-fluoro-3-methoxyphenyl)-1-(1-(1-methyl-6-oxo-1,6-dihydropyridin-3-yl)-1H-indazol-5-yl)-5-oxopyrrolidin-3-yl)propanamide]
2 | > 85% | Cn1cc(-n2ncc3cc(N4C(=O)C[C@H](NC(=O)C(C)(F)F)[C@H]4c4cccc(Cl)c4)ccc32)ccc1=O [Example 1, N-((2R,3S)-2-(3-chlorophenyl)-1-(1-(1-methyl-6-oxo-1,6-dihydropyridin-3-yl)-1H-indazol-5-yl)-5-oxopyrrolidin-3-yl)-2,2-difluoropropanamide]
3 | > 85% | Cn1cc(-n2ncc3cc(N4C(=O)C[C@H](NC(=O)C(C)(F)F)C4c4ccc5c(c4)OCCO5)ccc32)ccc1=O (stereo in doubt) [Example 3, trans-2,2-difluoro-N-(5-oxo-2-(2,3-dihydrobenzo[b][1,4]dioxin-6-yl)-1-(1-(1-methyl-6-oxo-1,6-dihydropyridin-3-yl)-1H-indazol-5-yl)pyrrolidin-3-yl)propanamide]
4 | > 85% | Cc1ccccc1[C@@H]1[C@@H](NC(=O)C(C)(F)F)CC(=O)N1c1ccc2c(cnn2-c2ccc(=O)n(C)c2)c1 [Example 43, 2,2-difluoro-N-((2R,3S)-1-(1-(1-methyl-6-oxo-1,6-dihydropyridin-3-yl)-1H-indazol-5-yl)-5-oxo-2-(o-tolyl)pyrrolidin-3-yl)propanamide]

Further lines, the compound ahead of its results:

Row | SMILES | inhibition at 1 µM
5 | COc1cc(Cn2ncc3cc(N4C(=O)C[C@H](NC(=O)C5CC5)C4c4ccccc4)ccc32)ccn1 (stereo in doubt) [Example 40, trans-N-(1-(1-((2-methoxypyridin-4-yl)methyl)-1H-indazol-5-yl)-5-oxo-2-phenylpyrrolidin-3-yl)cyclopropanecarboxamide] | 40 to 60%
6 | Cn1cc(-n2ncc3cc(N4C(=O)C[C@H](NC(=O)C5(F)CC5)[C@H]4c4ccccc4)ccc32)ccc1=O [Example 18, 1-fluoro-N-((2R,3S)-1-(1-(1-methyl-6-oxo-1,6-dihydropyridin-3-yl)-1H-indazol-5-yl)-5-oxo-2-phenylpyrrolidin-3-yl)cyclopropanecarboxamide] | > 85%
7 | Cn1ccc(Cn2ncc3cc(N4C(=O)C[C@H](NC(=O)C(C)(F)F)C4c4ccccc4)ccc32)n1 (stereo in doubt) [Example 32, trans-2,2-difluoro-N-(1-(1-((1-methyl-1H-pyrazol-3-yl)methyl)-1H-indazol-5-yl)-5-oxo-2-phenylpyrrolidin-3-yl)propanamide] | 60 to 85%
8 | COc1ccc(Cn2ncc3cc(N4C(=O)C[C@H](NC(=O)C(C)(F)F)[C@H]4c4ccccc4)ccc32)cn1 (relative stereo) [Example 33, trans-2,2-difluoro-N-(1-(1-((6-methoxypyridin-3-yl)methyl)-1H-indazol-5-yl)-5-oxo-2-phenylpyrrolidin-3-yl)propanamide] | > 85%
9 | Cn1ccc(Cn2ncc3cc(N4C(=O)C[C@H](NC(=O)C(C)(F)F)C4c4ccccc4)ccc32)cc1=O (stereo in doubt) [Example 38, trans-2,2-difluoro-N-(1-(1-((1-methyl-2-oxo-1,2-dihydropyridin-4-yl)methyl)-1H-indazol-5-yl)-5-oxo-2-phenylpyrrolidin-3-yl)propanamide] | 60 to 85%
10 | Cc1cnc(C(=O)N[C@H]2CC(=O)N(c3ccc4c(cnn4-c4ccc(=O)n(C)c4)c3)[C@@H]2c2ccccc2)s1 (relative stereo) [Example 13, 5-methyl-N-(trans-1-(1-(1-methyl-6-oxo-1,6-dihydropyridin-3-yl)-1H-indazol-5-yl)-5-oxo-2-phenylpyrrolidin-3-yl)thiazole-2-carboxamide] | > 85%

Same assay, conditions: read-out: % inhibition hGR at 1 μM

Row | SMILES | inhibition at 1 µM
11 | Cc1ccc(-n2ncc3cc(N4C(=O)C[C@H](NC(=O)C(C)(F)F)C4c4ccccc4)ccc32)cn1 (stereo in doubt) [Example 24, trans-2,2-difluoro-N-(1-(1-(6-methylpyridin-3-yl)-1H-indazol-5-yl)-5-oxo-2-phenylpyrrolidin-3-yl)propanamide] | 60 to 85%

From US10626106B2, “Substituted pyrrolidine amides I” (Gruenenthal GmbH, priority 2017, dated 2020)
